Data published in patent publication US9498532B2, “Antibody drug conjugates” (Novartis AG, priority 2013, dated 2016).

Test system: CHGA119 primary gastric tumor xenograft
Assay: Anti-tumor activity and host response in CHGA119 patient-derived xenograft
Settings: CHGA119-tumor bearing mice, ADCs 10 mg/kg i.v. q2wk, BGJ398 10 mg/kg p.o. qd
From the text: In these studies, CHGA119 tumor fragments in size of 2 mm×2 mm×2 mm were implanted subcutaneously (s.c.) into female nu/nu athymic mice. […] Tumors were calipered twice a week.

Question: Which results are given for `CCN1CCN(c2ccc(Nc3cc(N(C)C(=O)Nc4c(Cl)c(OC)cc(OC)c4Cl)ncn3)cc2)CC1` [BGJ398, 3-(2,6-Dichloro-3,5-dimethoxy-phenyl)-1-{6-[4-(4-ethyl-piperazin-1-yl)-phenylamino]-pyrimidin-4-yl}-1-methyl-urea]?
Answer: Host response % body weight change (mean ± SEM): −3.7 ± 3%; Host response Mean body weight change (g ± SEM): -0.8 ± 0.7 g; Mean tumor volume change (mm^3 ± SEM): 386 ± 169 mm^3; Survival (survivors/total): 8/8; Tumor response T/C (%) (after 5 weeks of treatment): 33%
